Experimental data from patent publication US9328374B2, “Selective culture medium and method for detecting carbapenem-resistant bacteria in a test sample” (Institut National de la Sante et de la Recherche Medicale …, priority 2011, dated 2016).
Where two headings read alike, the source gives them in different places.

How the values were obtained:
Assay in all cases: MIC of imipenem, ertapenem and meropenem
E. coli = type: cell-based, Escherichia coli; details: Escherichia coli
P. stuartii = type: cell-based, Providencia stuartii
C. koseri = type: cell-based

Measured: MIC

C[C@@H](O)[C@H]1C(=O)N2C(C(=O)O)=C(S[C@@H]3CN[C@H](C(=O)Nc4cccc(C(=O)O)c4)C3)[C@H](C)[C@H]12 [ETP, ertapenem]
0.012 µg/mL: E. coli; E. coli 1048, TEM-1 + SHV-2a, non-carbapenemase producer, read-out: MIC | E. coli; E. coli E14, CTX-M-14, non-carbapenemase producer, read-out: MIC | E. coli; E. coli ECA, ACC-1, non-carbapenemase producer, read-out: MIC | E. coli; E. coli EVB, VEB-1, non-carbapenemase producer, read-out: MIC | E. coli; E. coli FOR, CTX-M-15, non-carbapenemase producer, read-out: MIC | E. coli; E. coli MET, Chromosome-encoded extended-spectrum cephalosporinase, non-carbapenemase producer, read-out: MIC | E. coli; E. coli SYD, CMY-2, non-carbapenemase producer, read-out: MIC | E. coli; strain E. coli 1048, TEM-1 + SHV-2a, non-carbapenemase producer, read-out: MIC
8 µg/mL: E. coli; E. coli TWA, IMP-8 + SHV-12, read-out: MIC | E. coli; E. coli ZAN, OXA-48 + TEM-1 + CTX-M-14, read-out: MIC
0.019 µg/mL: E. coli; E. coli 1082 (TEM-1) | E. coli; E. coli 1082, TEM-1, non-carbapenemase producer
0.023 µg/mL: E. coli; E. coli 1020, CTX-M-1 + TEM-1, non-carbapenemase producer
1.5 µg/mL: E. coli; E. coli BER (OXA-48 + CTX-M-15), read-out: MIC | E. coli; E. coli BER, OXA-48 + TEM-1 + CTX-M-15, read-out: MIC | E. coli; E. coli GOG (OXA-48 + CTX-M-24), read-out: MIC
4 µg/mL: E. coli; E. coli 1108013, IMP-1 + TEM-1, read-out: MIC | E. coli; E. coli COL (KPC-2), read-out: MIC | E. coli; E. coli COL, KPC-2 + TEM-1 + CTX-M-9, read-out: MIC
32 µg/mL: E. coli; E. coli AUS (NDM-1 + CTX-M-15 + TEM-1), read-out: MIC | E. coli; E. coli AUS, NDM-1 + TEM-1 + CTX-M-15, read-out: MIC
0.016 µg/mL: E. coli; E. coli 1023, CTX-M-2 + TEM-1, non-carbapenemase producer, read-out: MIC | E. coli; E. coli 10121, CTX-M-2, non-carbapenemase producer, read-out: MIC | E. coli; strain E. coli 1008, TEM-1 + CTX-M-1, non-carbapenemase producer, read-out: MIC | E. coli; strain E. coli 10121, CTX-M-2, non-carbapenemase producer, read-out: MIC
3 µg/mL: E. coli; E. coli RIC (NDM-1 + OXA-1 + OXA-10 + CMY-16), read-out: MIC | E. coli; E. coli RIC, NDM-1 + CMY-16 + OXA-1 + OXA-10, read-out: MIC
0.004 µg/mL: E. coli; E. coli 6252, (wild type), non-carbapenemase producer
1 µg/mL: E. coli; E. coli OM3, OXA-48 + TEM-1 + CTX-M-15, read-out: MIC | E. coli; E. coli OM22, OXA-48 + TEM-1 + CTX-M-15, read-out: MIC
0.006 µg/mL: E. coli; E. coli 1034, TEM-1 + SHV-38, non-carbapenemase producer, read-out: MIC | E. coli; strain E. coli 1034, TEM-1 + SHV-38, non-carbapenemase producer, read-out: MIC
0.5 µg/mL: E. coli; E. coli BON (OXA-48 + CTX-M-24 + TEM-1), read-out: MIC | E. coli; E. coli BON, OXA-48 + TEM-1 + CTX-M-24, read-out: MIC | E. coli; E. coli PSP (KPC-2), read-out: MIC | E. coli; E. coli PSP, KPC-2 + TEM-1 + OXA-1, read-out: MIC | E. coli; strain E. coli AME, OXA-48 + CTX-M-24, read-out: MIC | E. coli; strain E. coli BON, OXA-48 + TEM-1 + CTX-M-24, read-out: MIC
2 µg/mL: E. coli; E. coli NAA (OXA-48 + CTX-M-24), read-out: MIC | C. koseri; C. koseri VER (OXA-48) | C. koseri; C. koseri VER, OXA-48 | C. koseri; Citrobacter koseri, C. koseri ROU, OXA-48, read-out: MIC | C. koseri; strain C. koseri VER, OXA-48
16 µg/mL: E. coli; E. coli DIH (VIM-19), read-out: MIC | E. coli; E. coli DIH, VIM-19, read-out: MIC
> 32 µg/mL: E. coli; E. coli DIN, KPC-2 + TEM-1 + OXA-1, read-out: MIC | E. coli; E. coli GEN (NDM-1 + OXA-1 + CMY-30 + TEM-1), read-out: MIC | E. coli; E. coli GEN, NDM-1 + TEM-1 + CMY-30 + OXA-1, read-out: MIC | E. coli; E. coli OM20, NDM-1 + TEM-1 + CTX-M-15, read-out: MIC
0.12 µg/mL: E. coli; E. coli E14 (CTX-M-14), read-out: MIC
0.38 µg/mL: E. coli; E. coli BOK (OXA-48 + CTX-M-15), read-out: MIC | E. coli; E. coli BOK, OXA-48 + CTX-M-15, read-out: MIC | P. stuartii; P. stuartii PS1 (NDM-1 + CMY-6 + OXA-1) | P. stuartii; P. stuartii PS1, NDM-1 + CMY-6 + OXA-1 | P. stuartii; Providencia stuartii, P. stuartii NDM (NDM-1 + OXA-1 + CMY-6), read-out: MIC | P. stuartii; strain P. stuartii PS1, NDM-1 + CMY-6 + OXA-1
0.19 µg/mL: E. coli; E. coli 1092, OXA-1, non-carbapenemase producer, read-out: MIC
0.75 µg/mL: E. coli; E. coli BOU (OXA-48 + CTX-M-15), read-out: MIC | E. coli; E. coli BOU, OXA-48 + CTX-M-15, read-out: MIC | E. coli; E. coli ROB (OXA-48), read-out: MIC | E. coli; E. coli ROB, OXA-48, read-out: MIC
